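Each compound was tested at five concentrations against cells in 96-well plates for 48 hours. GI50 is the concentration that inhibits growth by half. The concentration for full growth arrest is given as TGI.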
Assays:
Experiment in all cases: NCI-60 cell line screen, 48 h
786-0 renal = system: 786-0 renal
A498 renal = system: A498 renal
A549 NSCLC = system: A549 NSCLC
ACHN renal = system: ACHN renal
BT-549 breast = system: BT-549 breast
CAKI-1 renal = system: CAKI-1 renal
CCRF-CEM leukemia = system: CCRF-CEM leukemia
COLO 205 colon = system: COLO 205 colon
DU-145 prostate = system: DU-145 prostate
HCC-2998 colon = system: HCC-2998 colon
HCT-116 colon = system: HCT-116 colon
HCT-15 colon = system: HCT-15 colon
HL-60(TB) leukemia = system: HL-60(TB) leukemia
HOP-62 NSCLC = system: HOP-62 NSCLC
HOP-92 NSCLC = system: HOP-92 NSCLC
HS 578T breast = system: HS 578T breast
HT29 colon = system: HT29 colon
IGROV1 ovarian = system: IGROV1 ovarian
K-562 leukemia = system: K-562 leukemia
KM12 colon = system: KM12 colon
LOX IMVI melanoma = system: LOX IMVI melanoma
M14 melanoma = system: M14 melanoma
MALME-3M melanoma = system: MALME-3M melanoma
MCF7 breast = system: MCF7 breast
MDA-MB-231 breast = system: MDA-MB-231 breast
MDA-MB-435 = system: MDA-MB-435
MOLT-4 leukemia = system: MOLT-4 leukemia
NCI-H226 lung = system: NCI-H226 lung
NCI-H23 lung = system: NCI-H23 lung
NCI-H460 lung = system: NCI-H460 lung
NCI-H522 lung = system: NCI-H522 lung
NCI/ADR-RES ovarian = system: NCI/ADR-RES ovarian
OVCAR-3 ovarian = system: OVCAR-3 ovarian
OVCAR-4 ovarian = system: OVCAR-4 ovarian
OVCAR-5 ovarian = system: OVCAR-5 ovarian
OVCAR-8 ovarian = system: OVCAR-8 ovarian
PC-3 prostate = system: PC-3 prostate
RPMI-8226 leukemia = system: RPMI-8226 leukemia
RXF 393 renal = system: RXF 393 renal
SF-268 CNS = system: SF-268 CNS
SF-295 CNS = system: SF-295 CNS
SF-539 CNS = system: SF-539 CNS
SK-MEL-2 melanoma = system: SK-MEL-2 melanoma
SK-MEL-28 melanoma = system: SK-MEL-28 melanoma
SK-MEL-5 melanoma = system: SK-MEL-5 melanoma
SK-OV-3 ovarian = system: SK-OV-3 ovarian
SN12C renal = system: SN12C renal
SNB-19 CNS = system: SNB-19 CNS
SNB-75 CNS = system: SNB-75 CNS
SR leukemia = system: SR leukemia
SW-620 colon = system: SW-620 colon
T-47D breast = system: T-47D breast
TK-10 renal = system: TK-10 renal
U251 CNS = system: U251 CNS
UACC-257 melanoma = system: UACC-257 melanoma
UACC-62 melanoma = system: UACC-62 melanoma
UO-31 renal = system: UO-31 renal

Compound: COc1cc(-c2cc(/C=C3\C(=O)Nc4ccc(Cl)cc43)[nH]n2)cc(OC)c1OC
- GI50 (786-0 renal): 15.2 µM
- TGI (786-0 renal): > 100 µM
- GI50 (A498 renal): 1.07 µM
- TGI (A498 renal): 7.24 µM
- GI50 (A549 NSCLC): 7.08 µM
- TGI (A549 NSCLC): > 100 µM
- GI50 (ACHN renal): 3.46 µM
- TGI (ACHN renal): 15.2 µM
- GI50 (BT-549 breast): 2.52 µM
- TGI (BT-549 breast): 7.16 µM
- GI50 (CAKI-1 renal): 2.82 µM
- TGI (CAKI-1 renal): 20.5 µM
- GI50 (CCRF-CEM leukemia): 3.02 µM
- TGI (CCRF-CEM leukemia): 26.7 µM
- GI50 (COLO 205 colon): 2.92 µM
- TGI (COLO 205 colon): 14.9 µM
- GI50 (DU-145 prostate): 9.54 µM
- TGI (DU-145 prostate): > 100 µM
- GI50 (HCC-2998 colon): 64 µM
- TGI (HCC-2998 colon): > 100 µM
- GI50 (HCT-116 colon): 4.7 µM
- TGI (HCT-116 colon): 69.3 µM
- GI50 (HCT-15 colon): 3.6 µM
- TGI (HCT-15 colon): > 100 µM
- GI50 (HL-60(TB) leukemia): 2.26 µM
- TGI (HL-60(TB) leukemia): 6.82 µM
- GI50 (HOP-62 NSCLC): 5.14 µM
- TGI (HOP-62 NSCLC): > 100 µM
- GI50 (HOP-92 NSCLC): 1.45 µM
- TGI (HOP-92 NSCLC): 16.8 µM
- GI50 (HS 578T breast): 5.03 µM
- TGI (HS 578T breast): > 100 µM
- GI50 (HT29 colon): 7.54 µM
- TGI (HT29 colon): 45.1 µM
- GI50 (IGROV1 ovarian): 6.34 µM
- TGI (IGROV1 ovarian): > 100 µM
- GI50 (K-562 leukemia): 4.05 µM
- TGI (K-562 leukemia): > 100 µM
- GI50 (KM12 colon): 3.3 µM
- TGI (KM12 colon): > 100 µM
- GI50 (LOX IMVI melanoma): 3.45 µM
- TGI (LOX IMVI melanoma): 22.7 µM
- GI50 (M14 melanoma): 3.09 µM
- TGI (M14 melanoma): 14 µM
- GI50 (MALME-3M melanoma): 2.71 µM
- TGI (MALME-3M melanoma): 8.63 µM
- GI50 (MCF7 breast): 3.15 µM
- TGI (MCF7 breast): > 100 µM
- GI50 (MDA-MB-231 breast): 4.41 µM
- TGI (MDA-MB-231 breast): > 100 µM
- GI50 (MDA-MB-435): 3.97 µM
- TGI (MDA-MB-435): > 100 µM
- GI50 (MOLT-4 leukemia): 2.7 µM
- TGI (MOLT-4 leukemia): 8.87 µM
- GI50 (NCI-H226 lung): 3.84 µM
- TGI (NCI-H226 lung): 26.5 µM
- GI50 (NCI-H23 lung): 4.95 µM
- TGI (NCI-H23 lung): > 100 µM
- GI50 (NCI-H460 lung): 5.03 µM
- TGI (NCI-H460 lung): > 100 µM
- GI50 (NCI-H522 lung): 3.12 µM
- TGI (NCI-H522 lung): 14.5 µM
- GI50 (NCI/ADR-RES ovarian): 3.73 µM
- TGI (NCI/ADR-RES ovarian): > 100 µM
- GI50 (OVCAR-3 ovarian): 6.16 µM
- TGI (OVCAR-3 ovarian): 71.6 µM
- GI50 (OVCAR-4 ovarian): 5.11 µM
- TGI (OVCAR-4 ovarian): > 100 µM
- GI50 (OVCAR-5 ovarian): 27.9 µM
- TGI (OVCAR-5 ovarian): > 100 µM
- GI50 (OVCAR-8 ovarian): 4.31 µM
- TGI (OVCAR-8 ovarian): > 100 µM
- GI50 (PC-3 prostate): 2.51 µM
- TGI (PC-3 prostate): 18.9 µM
- GI50 (RPMI-8226 leukemia): 1.88 µM
- TGI (RPMI-8226 leukemia): 4.81 µM
- GI50 (RXF 393 renal): 9.21 µM
- TGI (RXF 393 renal): > 100 µM
- GI50 (SF-268 CNS): 35.3 µM
- TGI (SF-268 CNS): > 100 µM
- GI50 (SF-295 CNS): 3.96 µM
- TGI (SF-295 CNS): 34.4 µM
- GI50 (SF-539 CNS): 6.7 µM
- TGI (SF-539 CNS): 26.3 µM
- GI50 (SK-MEL-2 melanoma): 3.52 µM
- TGI (SK-MEL-2 melanoma): 21 µM
- GI50 (SK-MEL-28 melanoma): 7.37 µM
- TGI (SK-MEL-28 melanoma): 72.4 µM
- GI50 (SK-MEL-5 melanoma): 1.46 µM
- TGI (SK-MEL-5 melanoma): 3.22 µM
- GI50 (SK-OV-3 ovarian): 49.3 µM
- TGI (SK-OV-3 ovarian): > 100 µM
- GI50 (SN12C renal): 5.72 µM
- TGI (SN12C renal): > 100 µM
- GI50 (SNB-19 CNS): 5.04 µM
- TGI (SNB-19 CNS): > 100 µM
- GI50 (SNB-75 CNS): 3.44 µM
- TGI (SNB-75 CNS): 27.9 µM
- GI50 (SR leukemia): 3.06 µM
- TGI (SR leukemia): 12.7 µM
- GI50 (SW-620 colon): 6.1 µM
- TGI (SW-620 colon): > 100 µM
- GI50 (T-47D breast): 2.6 µM
- TGI (T-47D breast): 18.3 µM
- GI50 (TK-10 renal): 8.15 µM
- TGI (TK-10 renal): 92.7 µM
- GI50 (U251 CNS): 5.37 µM
- TGI (U251 CNS): > 100 µM
- GI50 (UACC-257 melanoma): 2.7 µM
- TGI (UACC-257 melanoma): 11.6 µM
- GI50 (UACC-62 melanoma): 1.73 µM
- TGI (UACC-62 melanoma): 3.9 µM
- GI50 (UO-31 renal): 2.81 µM
- TGI (UO-31 renal): 23.6 µM
